From patent US20030171406A1, “Medicinal compositions containing propenone derivatives” (priority 2000, published 2003)
Converted amounts (≈) assume the structure as drawn. Read-outs that look alike come from different tables or passages of the source.

Assays:
Assay type in all cases: cell-based
HIV-1 NL432 = test: Antiviral assay in infected Molt-4 cells, virus measured by RT activity; details: read-out: EC50 HIV-1 NL432
Method: (§1) (1) Molt-4 cells (2×10^6 cells) were infected with HIV-1 NL432 (4×10^6 cpm), HIV-2 Rod (8×10^6 cpm), SIVmac MA239 (8×10^6 cpm) and SIVagm SA212 (8×10^6 cpm), and incubated for 1 hr at room temperature.
(§2) {circle over (1)} Preparation of HIV-1 virus: SW480 cells were cultured in DMEM medium supplemented with 10% fetal bovine serum using 25 cm^2 flask. HIV-1 infectious molecular DNA (40 μg), pNL432, transfected to the cells by calcium phosphate coprecipitation method, and the supernatant (2 mL) at 2-3 days post-transfection was infected to M8166 cells (1×10^6 cells). The cells were cultured in 10 mL RPMI medium supplemented with 10% fetal bovine serum in CO2 incubator at 37° C. After apparent giant cells were observed, the cells were removed by centrifugation and then the supernatant was filtrated by 0.45 μm filter, measured RT activity, and stored at −80° C. as HIV-1 stock virus.
(§3) {circle over (2)} The cells were washed twice to remove the viruses and suspended in 10 mL RPMI medium supplemented with 10% fetal bovine serum. The infected cells (100 μL) were plated in 96-well microtiter plates containing with the serial 5 fold dilution of compounds (100 μL) and cultured in CO2 incubator at 37° C.
(§4) {circle over (3)} The supernatant at 5 days postinfection was harvested and measured the amount of the virus by RT activity.
(§5) Preparation of the solution for RT assay:
(§6) A reaction mixture (90 μL) were contained 50 mM Tris-HCl, pH 8.3, 150 mM KCl, 10 mM MgCl2, 0.1% Nonidet P-40, 10 mM DTT (dithiothreitol), 5 μg/mL poly(rA), 5 μg/mL (dT)12-18 and 1 μCi [^3H] dTTP at final concentration after mixture of a sample (10 μL).
(§7) The procedure of RT assay:
(§8) 1. 10 μL of sample was plated to 3 wells of 96-well microtiter plate (triplicate assay).
(§9) 2. Reaction mixture (90 μL) chilled at 4° C. was added to each well, mixed and then incubate at 37° C. for 3 hrs.
(§10) 3. After incubation, the plate was chilled on ice, and passed through a DEAE-Filtermat using cell harvester. The filter was washed with 4.5% Na2HPO4 (20 see) and H2O (10 sec).
(§11) 4. The filter was dried at 95° C. for 15 min.
(§12) 5. 10 mL of scintilator was added and sealed.
(§13) 6. Radioactivity was measured by LKB Beta Plate scintillation spectroscopy.
(§14) 7. RT activity (cpm/mL) was calculated from average of three wells.

SIVagm SA212 = test: as above; details: 120 h, RT activity of supernatant at 5 days postinfection
Method: as §1
{circle over (4)} Preparation of SIVagm virus: SW480 cells were cultured in DMEM medium supplemented with 10% fetal bovine serum using 25 cm^2 flask. SIVagm SA212 infectious molecular DNA (40 μg), pSA212, transfected to the cells by calcium phosphate coprecipitation methods, and the supernatant (2 mL) at 2-3 days post-transfection was infected to M8166 cells (1×10^6 cells). The cells were cultured in 10 mL RPMI medium supplemented with 10% fetal bovine serum in CO2 incubator at 37° C. Every 3 days, the cells were separated from the supernatant by centrifugation and continued culture with new culture medium. The each supernatant was filtrated by 0.45 μm filter, measured RT activity, and stored at −80° C. as SIVagm stock virus.
as §3, §4, §5, §6, §7, §8, §9, §10, §11, §12, §13, §14

HIV (HTLV-IIIB strain) = test: MTT assay, MT-4 cells infected with HIV; details: Human immunodeficiency virus 1, MT4, 120 h, 5 days, inhibits 50% of cell damage caused by virus, read-out: EC50
Method: The inhibitory effects of each anti-human immunodeficiency virus active substance against human immunodeficiency virus have been determined by MTT assay described below.
(1) Human T cell strain Molt-4 clone 8 persistently infected HIV (HTLV-IIIB strain) was cultivated in RPMI-1640 medium supplemented with 10% fatal bovine serum, and supernatant was filtered, measured RT activity, and stored at −80° C. On the other hand, each human anti-immunodeficiency virus active substance was diluted to fixed concentration in culture medium, they were plated to 96-well microtiter plate. Subsequently, 100 μL (3.5×10^4 cells) of MT-4 cell suspension was plated to 96-well microtiter plate, and then above mentioned supernatant containing HIV, which was diluted by culture medium, was added 50 μL (60 pfu (plaque forming unit.)) to 96-well microtiter plate.
(2) After cultivation at 37° C. for 5 days in CO2 incubator, into all well was added 30 μL per well 3-(4,5-[…])-2,5-diphenyltetrazolium bromide (MTT) 5 mg/mL) and PBS, and then incubated for 1 h.
In this time, alive cells reduced MTT and formazan was precipitated, therefore, 150 μL of cell supernatants were removed from all wells, and then 150 μL of lysate (10% triton X-100 and 0.4% (v/v) HCl-containing isopropanol) was added, and formazan was eluated on a plate shaker.

HIV-2 Rod = test: Antiviral assay in infected Molt-4 cells, virus measured by RT activity; details: read-out: EC50 HIV-2 ROD
Method: as §1
{circle over (2)} Preparation of HIV-2 virus: HIV-2 Rod was infected to M8166 cells (1×10^6 cells). The cells were cultured in 10 mL RPMI medium supplemented with 10% fetal bovine serum in CO2 incubator at 37° C. After apparent giant cells were observed, the cells were removed by centrifugation and then the supernatant was filtrated by 0.45 μm filter, measured RT activity, and stored at −80° C. as HIV-2 stock virus.
as §3, §4, §5, §6, §7, §8, §9, §10, §11, §12, §13, §14

SIVmac MA239 = test: as above; details: 120 h, RT activity of supernatant at 5 days postinfection
Method: as §1
as §2, with “over (3)}” for “over (1)}”, “of SIVmac” for “of HIV-1”, “flask. SIVmac MA239” for “flask. HIV-1”, “μg), pMA239,” for “μg), pNL432,”, “to CEMX174” for “to M8166”, “as SIVmac” for “as HIV-1”
as §3, §4, §5, §6, §7, §8, §9, §10, §11, §12, §13, §14

[1] = test system: feline immunodeficiency virus (FIV TM-2 strain); test: FIV antiviral assay in MYA-1 feline T cells, RT activity; details: T-cell, 240 h, FIV TM-2, MYA-1 cells, RT activity at 10 days postinfection
Method: (1) The serial 5 fold diluted samples were plated in 24 well microtiter plate. Feline T-cell lines (MYA-1 cells: 4×10^5 cells/well) and feline immunodeficiency virus (FIV TM-2 strain: 3000 cpm/well) were added to each well. The cells were cultured with 1.5 mL RPMI medium supplemented with 10% fetal bovine serum, 2 μg/mL polybrene, 100 unit/mL human recombinant IL-2 and 50 μM 2-mercaptoethanol in CO2 incubator at 37° C.
{circle over (1)} Preparation of FIV TM-2 virus: FIV TM-2 was infected to MYA-1 cells (1×10^6 cells). The cells were cultured in 10 mL RPMI medium supplemented with 10% fetal bovine serum, 2 μg/mL polybrene, 100 unit/ml human recombinant IL-2 and 50 μM 2-mercaptoethanol in CO2 incubator at 37° C. Every 1-2 days, the cells were separated from the supernatant by centrifugation and continued culture with new culture medium. Each of the supernatant was filtrated by 0.45 μm filter, measured RT activity, and stored at as −80° C. as FIV stock virus.
(2) Every 1-2 days, the supernatants were measured the amount of the virus by RT activity (as same as experimental example 2).

[2] = Human immunodeficiency virus 1, 120 h, Molt-4 cells, RT activity of supernatant at 5 days postinfection
[3] = Human immunodeficiency virus 2, 120 h, Molt-4 cells, RT activity of supernatant at 5 days postinfection

| SMILES | EC50 (HIV-1 NL432; [2]) [ng/mL] | EC50 (SIVagm SA212) [ng/mL] | EC50 (HIV (HTLV-IIIB strain)) [ng/mL] | EC50 (HIV-2 Rod; [3]) [ng/mL] | EC50 (SIVmac MA239) [ng/mL] | EC50 [1] [ng/mL] | EC50 (HIV-1 NL432; Human immunodeficiency virus 1, MOLT-4, 120 h) [ng/mL] | EC50 (HIV-2 Rod; Human immunodeficiency virus 2, MOLT-4, 120 h) [ng/mL] |
| --- | --- | --- | --- | --- | --- | --- | --- | --- |
| Nc1ccn(C2CSC(CO)O2)c(=O)n1 (single isomer, unassigned; (-)) [Lamivudine, (−)-2′,3+-dideoxy-3′-thiacytidine] | 8.4 (≈ 0.0366 µM) | 22 (≈ 0.096 µM) | 38 | 22 (≈ 0.096 µM) | 9.1 (≈ 0.0397 µM) |  |  |  |
| Cc1cn(C2CC(N=[N+]=[N-])C(CO)O2)c(=O)[nH]c1=O (stereo not drawn) [Zidovudine, 3′-azido-3′-deoxycytimidine] | 0.51 (≈ 0.00191 µM) | 0.36 (≈ 0.00135 µM) | 1.8 | 0.28 (≈ 0.00105 µM) | 0.35 (≈ 0.00131 µM) | 48 (≈ 0.18 µM) |  |  |
| Cc1cn([C@H]2C=C[C@@H](CO)O2)c(=O)[nH]c1=O [Stavudine] |  | 4.5 (≈ 0.0201 µM) | 50 |  | 3.4 (≈ 0.0152 µM) |  | 6.1 (≈ 0.0272 µM) | 4.1 (≈ 0.0183 µM) |
| O=C(C=C(O)c1nc[nH]n1)c1ccc(Cc2ccc(F)cc2)o1 [Compound I-16, 1-[5-(4-Fluorobenzyl)furan-2-yl]-3-hydroxy-3-(1H-1,2,4-triazol-3-yl)propenone] | 57 (≈ 0.182 µM) | 44 (≈ 0.14 µM) |  | 35 (≈ 0.112 µM) | 57 (≈ 0.182 µM) | 300 (≈ 0.958 µM) |  |  |
